Values quoted from earlier work, collected in patent EP1195160B1, “Sustained release trimetazidine pharmaceutical compositions and a method of their preparation” (USV Ltd., priority 2000, dated 2002).
Where two headings read alike, the source gives them in different places.

Columns and labels:
[1] = 80mg dose, prolonged release coated reservoir system of EP 0 673 649, 12 volunteers
[2] = 20mg, single dose administration
[3] = value from the literature
[4] = oral, immediate release preparation

COc1ccc(CN2CCNCC2)c(OC)c1OC.Cl.Cl [Trimetazidine dihydrochloride, 1-(2,3,4-trimethoxybenzyl)-piperazine dihydrochloride]
steady state plasma concentration (Css) [1]: around 110 ng/ml | maximum plasma concentration Cmax [2]: 0.0536 ± 0.009 µg/mL | Elimination half life t 1/2 [3]: t 1/2 = 6.0 hours. | Plasma concentration Css [3]: Css = 84ng/ml | T max [3]: T max = 1.8 ± 0.7 hours. | Volume of distribution Vd [3]: Vd = 294 litres. | T max [4]: around 1.8 ± 0.7 hours | plasma half life [4]: around 6.0 ± 1.4 hours
